Consider one compound from patent US5576439A, “Dihydropyridinecarboxylic acid anhydrides” (Ciba-Geigy Corporation, priority 1994, dated 1996).

Molecules are shown by their SMILES.

One may read the IC50 as the midpoint of a concentration-inhibition curve. Higher therefore signals weaker potency in that assay.

Assay [1] deals with T1, ETA receptor (Rattus norvegicus, UniProt P26684).
T1 construct: labeled A7r5 cells; endogenous in cells; host or cells: A7r5 cells
T1 sequence (P26684 21-426): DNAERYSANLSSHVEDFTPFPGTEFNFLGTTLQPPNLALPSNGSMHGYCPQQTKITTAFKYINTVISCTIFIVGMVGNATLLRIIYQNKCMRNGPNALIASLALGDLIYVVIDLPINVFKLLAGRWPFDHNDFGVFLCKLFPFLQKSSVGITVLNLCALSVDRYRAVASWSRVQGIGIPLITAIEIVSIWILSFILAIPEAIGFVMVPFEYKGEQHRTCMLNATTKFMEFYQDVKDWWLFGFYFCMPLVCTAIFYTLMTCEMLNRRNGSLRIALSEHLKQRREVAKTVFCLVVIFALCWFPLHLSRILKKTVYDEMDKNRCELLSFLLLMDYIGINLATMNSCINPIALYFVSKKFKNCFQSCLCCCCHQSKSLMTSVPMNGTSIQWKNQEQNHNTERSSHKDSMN
Nature of the assay: ETA receptor inhibitory activity by release of [^3 H]-inositol from labeled A7r5 cells. The assay is classed as cell-based. The source says:
For instance the ETA receptor inhibitory activity can be determined by measuring the release of [^3 H]-inositol from [^3 H]-inositol labeled A7r5 cells, as previously described by Cioffi et at, J. Cardiovasc. Pharmacol. 22 (Suppl. 8), S-168 (1993).

Assay [2] deals with increase in blood pressure induced by ET-1. Nature of the assay: Effect on pressor response to ET-1 in the conscious rat. The class given is in vivo. To be noted: 10 mg/Kg i.v., 5 minute pretreatment, ET-1 0.25 nmol/kg i.v. The protocol: (§1) The cardiovascular effects of ET-1 inhibitory activity can be determined as follows:
(§2) A 30 minute pretreatment with test compound (0.1-10 μM) is utilized to determine inhibition of the ET-1 induced contractile response in isolated rabbit aorta. The maximal response to ET-1 is measured at 0.1, 1 and 10 μM, respectively. Similar pretreatment with test compound (1 μM) is utilized to determine the effects of phenylephrine or KCl induced contraction, an indication that the specificity of hemodynamic affects is caused by intereaction with the endothelin receptor. A 5 minute pretreatment with test compound (10 mg/kg, i.v.) is also used to assess the effects on pressor response and attenuation of the depressor response to ET-1 (0.25 nmol/kg iv.) in the conscious rat.

For assay [3], the target named is T2, ETA receptor (Sus scrofa, UniProt Q29010).
T2 construct: porcine thoracic aorta membranes (ETA receptor); from tissue; host or cells: porcine thoracic aorta membranes
T2 sequence (Q29010 21-427): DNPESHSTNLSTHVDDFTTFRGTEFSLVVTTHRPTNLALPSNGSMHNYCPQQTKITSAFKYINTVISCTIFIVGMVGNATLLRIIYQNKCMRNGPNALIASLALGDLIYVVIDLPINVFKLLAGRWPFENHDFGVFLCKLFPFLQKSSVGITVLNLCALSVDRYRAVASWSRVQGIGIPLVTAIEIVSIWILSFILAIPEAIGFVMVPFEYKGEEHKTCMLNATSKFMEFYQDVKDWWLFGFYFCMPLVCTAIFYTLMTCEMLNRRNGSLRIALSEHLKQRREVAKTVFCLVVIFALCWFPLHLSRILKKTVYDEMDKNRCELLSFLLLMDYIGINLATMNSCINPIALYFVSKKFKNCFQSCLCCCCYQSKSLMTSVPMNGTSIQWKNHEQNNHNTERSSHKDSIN
Kind of assay: Inhibition of [^125 I] ET-1 binding to porcine thoracic aorta membranes. The protocol: (§3) Inhibition of the binding of [^125 I] ET-1 to porcine thoracic aorta membranes (ETA receptor) is determined according to Cioffi et al, J. Pharmacol. Exp. Ther. 262, 611 (1992); similarly inhibition of binding of [^125 I] ET-1 to rat cerebellum membranes (ETB receptor).

The target in assay [4] is T3, ETB receptor (Rattus norvegicus, UniProt P21451).
T3 construct: rat cerebellum membranes (ETB receptor); from tissue; host or cells: rat cerebellum membranes
T3 sequence (P21451 27-442): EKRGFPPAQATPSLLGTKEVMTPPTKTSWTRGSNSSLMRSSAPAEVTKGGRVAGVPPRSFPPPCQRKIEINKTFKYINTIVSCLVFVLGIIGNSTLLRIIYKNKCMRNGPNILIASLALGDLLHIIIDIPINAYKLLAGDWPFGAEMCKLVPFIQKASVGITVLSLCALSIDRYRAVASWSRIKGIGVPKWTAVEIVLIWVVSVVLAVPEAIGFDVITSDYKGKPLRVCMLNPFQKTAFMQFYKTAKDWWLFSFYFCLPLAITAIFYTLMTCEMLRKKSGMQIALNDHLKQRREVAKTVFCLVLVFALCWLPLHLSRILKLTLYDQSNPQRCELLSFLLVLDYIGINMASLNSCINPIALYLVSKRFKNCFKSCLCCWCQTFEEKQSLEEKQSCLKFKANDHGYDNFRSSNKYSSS
Nature of the assay: Inhibition of [^125 I] ET-1 binding to rat cerebellum membranes. The protocol:
as §3

For assay [5], the system named is ET-1 induced contractile response in isolated rabbit aorta. Nature of the assay: Inhibition of ET-1 induced contractile response in isolated rabbit aorta. To be noted: 10 μM, 30 minute pretreatment. The protocol:
as §1, §2

Turning to `COC(=O)C1=C(C)NC(C)=C(C(=O)OC(=O)C2=C(C)NC(C)=C(C(=O)OC)[C@@H]2c2cccc([N+](=O)[O-])c2)[C@@H]1c1cccc([N+](=O)[O-])c1` [Example 1, meso-1,4-dihydro-5-methoxycarbonyl-2,6-dimethyl-4-(3-nitrophenyl)-3-pyridine-carboxylic acid anhydride], the half-inhibitory concentration (IC50) in assay [1] was approximately 140 nM; in assay [3] it was approximately 16 nM; in assay [4] it was approximately 300 nM. The “antagonism of increase in blood pressure induced by ET-1” value in assay [2] is “completely antagonizes”. For the same compound, in assay [5], the “inhibition of ET-1 induced contractile response” value was 77%.
